# Source: US6441049B2, “Method of treating neurodegenerative disorders via inhibition of amyloid beta peptide binding” (Ortho-McNeil Pharmaceutical, Inc., priority 1998, dated 2002)
# Legend:
# [1] = tested on: acetylcholine release from guinea pig hippocampus synaptosomes; assay: K+-evoked 3H-acetylcholine release from synaptosomes, effect of Aβs; type: cell-based
# Experimental: Synaptosomes from guinea pig hippocampus were incubated with 0.1 μM ^3H-choline and then subjected to repeated washes to remove unincorporated ^3H-choline. The synaptosomes were treated with 65 mM K^+ for 30 seconds to elicit 3H-acetylcholine release.
# [2] = target: 206-216 stretch of the human α7 nAChR (Homo sapiens, UniProt P36544)
# Experimental: A 2-5 ug quantity of the 11 amino acid peptide comprised of the 206-216 stretch of the α7 nAChR (N-Ac, C(O)NH2) are added to a 96-well microtiter plate in 50 mL 10 mM HEPES, pH 7.4, or any buffer 50 ul. ^125I-β-amyloid1-40 (2000 Ci/mmol, 50 pM) was added to the wells in the presence and absence of inhibitors (1 uM to 10 uM) dissolved in 1 uL of 30% or 100% DMSO. Unbound ligands were removed and bound radioactivity was measured using a Microbeta liquid scintillation counter.
# [3] = target: T1, alpha-7 nAChRs (Homo sapiens); assay: 125I-Aβ1-40 binding to alpha-7 nAChRs (SK-N-MC cell membranes) on wheat germ agglutinin SPA beads; details: read-out: IC50, inhibition of 125I-Aβ1-40 binding to SK-N-MC cells
# T1 construct: alpha-7 nAChR contained SK-N-MC cell membranes were immobilized; endogenous in cells; host or cells: SK-N-MC cell membranes
# T1 sequence (P05067 672-711): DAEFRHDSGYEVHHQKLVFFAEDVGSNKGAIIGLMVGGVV
# Experimental: Alpha-7 nAChRs were immobilized on wheat germ agglutinin coupled yittrium SPA beads and allowed to incubate with ^125I-Aβ1-40 in the presence of various concentrations of cold Aβ1-40 or Aβ1-42.
# Aβ aggregation [4] = target: T2, Aβ aggregation (Homo sapiens, UniProt P05067); assay: Aβ aggregation assay on Synthaloid plates with labelled Aβ1-40; type: biochemical
# T2 construct: 100 nM of fluo-Aβ1-40 in 100 μl of each well of the 96-well Synthaloid plate; purchased Amersham Pharmacia Biotech (125I-Aβ1-40); Advanced Bioconcepts (fluo-Aβ1-40)
# T2 sequence (P05067 672-711 limits assumed): as the sequence (P05067 672-711) above
# Aβ aggregation [5] = target: T2, Aβ aggregation; assay: as above; type: biochemical; remark: listed apart in the source
# Experimental: Aβs are known to form aggregates leading to the formation of amyloid plaques that are characteristic of Alzheimer's disease. […] We have validated this aggregation assay using both ^125I-Aβ1-40 and fluo-Aβ1-40 in a buffer containing 50 mM HEPES, pH 7.4, 0.1% BSA, 10% FCS and protease inhibitors. About 500 pM of ^125I-Aβ1-40 or 100 nM of fluo-Aβ1-40 in 100 μl of each well of the 96-well Synthaloid plate was allowed to incubate for 2.5 hr at room temperature in the presence or absence of inhibitors. At the end of the incubation, unbound protein in the wells was removed by three washes using the above buffer. The amount of bound protein which represented Aβ aggregation was measured either by scintillation counting or fluorescence measurements.
# [6] = tested on: Aβ1-42 mediated inhibition of ACh release in rat cortical synaptosomes; assay: Amelioration of the Aβ1-42 mediated inhibition of ACh release in rat cortical synaptosomes; type: cell-based
# [7] = target: α7 subtype nAChR homomers (Homo sapiens, UniProt P36544); details: cited from earlier work
# Sequence of α7 subtype nAChR homomers (P36544 23-502): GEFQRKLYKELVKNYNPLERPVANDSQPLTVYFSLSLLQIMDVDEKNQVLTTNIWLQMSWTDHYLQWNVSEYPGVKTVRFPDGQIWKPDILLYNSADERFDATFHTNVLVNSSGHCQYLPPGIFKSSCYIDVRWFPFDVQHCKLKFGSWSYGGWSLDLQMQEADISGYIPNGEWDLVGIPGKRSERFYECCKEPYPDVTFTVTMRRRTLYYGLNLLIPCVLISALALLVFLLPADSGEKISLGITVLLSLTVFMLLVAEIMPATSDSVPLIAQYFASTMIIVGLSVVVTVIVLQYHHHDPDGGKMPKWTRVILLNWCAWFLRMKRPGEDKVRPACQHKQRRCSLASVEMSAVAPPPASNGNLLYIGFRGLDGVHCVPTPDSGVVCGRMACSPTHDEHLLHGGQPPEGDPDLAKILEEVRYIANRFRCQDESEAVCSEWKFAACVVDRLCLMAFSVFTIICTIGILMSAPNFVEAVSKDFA
compound,measurement,setting,value
"CCCN(CCC)[C@@H]1Cc2c(O)ccc(O)c2C[C@H]1C (racemic) [Compound 9, 5,8-Dihydroxy-trans-2-di(N-propylamino)-3-methyl-1,2,3,4-tetrahydronaphthalene]",Effect on acetylcholine release of Aβ after pretreatment with compound,[1]; 10 nM compound and 100 pM of either Aβ1-40 and Aβ1-42 prior to K+ stimulation,no effect on acetylcholine release
same,% ACh Release at 10 μM,[1]; 10 μM,94%
same,IC50,"[1]; Cavia porcellus, read-out: ACh Release (IC50)",100 nM
same,Inhibition of ligand binding to the 206-216 peptide,[2],inhibited
same,% α7 nAChR 206-216 Binding,"[2]; […], inhibitors 1 uM to 10 uM",94%
same,IC50,[3],0.3 nM
same,Effect of prolonged incubation on amyloid aggregates (time course),Aβ aggregation [4],resulted in disaggregation
same,inhibition at 10 µM,"Aβ aggregation [5]; 10 μM, read-out: % Inh Agg. (conc μM)",> 90%
same,IC50,"Aβ aggregation [5]; Synthaloid plate, 2.5 hr, room temperature, read-out: IC50, inhibition of Aβ aggregation",10 nM
Ac-SERFYECCKEP-NH2 [human alpha-7 nAChR206-216 Ac-SERFYECCKEP-NH2] (cysteine pairing not given here),Inhibition of ligand binding to the 206-216 peptide,[2],inhibited
same,Amelioration of the Aβ1-42 Meditated Inhibition of ACh Release in Rat Cortical Synaptosomes (%),[6]; at 1 μM,77% at 1 μM
same,Amelioration of the Aβ1-42 Meditated Inhibition of ACh Release in Rat Cortical Synaptosomes (%),[6]; at 10 μM,81% at 10 μM
Ac-YECC-NH2 [human alpha-7 nAChR210-213],Amelioration of the Aβ1-42 Meditated Inhibition of ACh Release in Rat Cortical Synaptosomes (%),[6]; at 1 μM,59% at 1 μM
same,Amelioration of the Aβ1-42 Meditated Inhibition of ACh Release in Rat Cortical Synaptosomes (%),[6]; at 10 μM,72% at 10 μM
SERFYECCKEP [206-216 peptide without Ac and NH2 end groups],Amelioration of the Aβ1-42 Meditated Inhibition of ACh Release in Rat Cortical Synaptosomes (%),[6]; at 1 μM,10% at 1 μM
same,Amelioration of the Aβ1-42 Meditated Inhibition of ACh Release in Rat Cortical Synaptosomes (%),[6]; at 10 μM,22% at 10 μM
α-bungarotoxin [reference compound],Inhibition of ligand binding to the 206-216 peptide,[2],inhibited
same,Kd,[7],0.65 to 1.7 nM
